Experimental data taken from US8741934B2, “Inhibitors of ion channels” (Pfizer Limited, priority 2007, dated 2014).
pIC50: −log10 of the molar value.

Biological target: T1, hSCN3A sodium channels (Homo sapiens, UniProt Q9NY46)
T1 construct: expressed in transfected cells
Experiment: hSCN3A electrophysiology, whole-cell patch-clamp or PatchXpress 7000, estimated IC-50 (Table B)
Format: cell-based
Details: estimated IC-50; hSCN3A cells, whole-cell patch-clamp or PatchXpress 7000; read-out: SCN3A EIC-50
Method in brief: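 Stably transfected HEK cells, whole-cell voltage clamp at 22-24° C, manual or PatchXpress 7000. Cells held at empirically determined inactivation V1/2; current evoked by 20 msec step to 0 mV after 8 sec prepulse to V1/2.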

T1 sequence (Q9NY46 whole entry): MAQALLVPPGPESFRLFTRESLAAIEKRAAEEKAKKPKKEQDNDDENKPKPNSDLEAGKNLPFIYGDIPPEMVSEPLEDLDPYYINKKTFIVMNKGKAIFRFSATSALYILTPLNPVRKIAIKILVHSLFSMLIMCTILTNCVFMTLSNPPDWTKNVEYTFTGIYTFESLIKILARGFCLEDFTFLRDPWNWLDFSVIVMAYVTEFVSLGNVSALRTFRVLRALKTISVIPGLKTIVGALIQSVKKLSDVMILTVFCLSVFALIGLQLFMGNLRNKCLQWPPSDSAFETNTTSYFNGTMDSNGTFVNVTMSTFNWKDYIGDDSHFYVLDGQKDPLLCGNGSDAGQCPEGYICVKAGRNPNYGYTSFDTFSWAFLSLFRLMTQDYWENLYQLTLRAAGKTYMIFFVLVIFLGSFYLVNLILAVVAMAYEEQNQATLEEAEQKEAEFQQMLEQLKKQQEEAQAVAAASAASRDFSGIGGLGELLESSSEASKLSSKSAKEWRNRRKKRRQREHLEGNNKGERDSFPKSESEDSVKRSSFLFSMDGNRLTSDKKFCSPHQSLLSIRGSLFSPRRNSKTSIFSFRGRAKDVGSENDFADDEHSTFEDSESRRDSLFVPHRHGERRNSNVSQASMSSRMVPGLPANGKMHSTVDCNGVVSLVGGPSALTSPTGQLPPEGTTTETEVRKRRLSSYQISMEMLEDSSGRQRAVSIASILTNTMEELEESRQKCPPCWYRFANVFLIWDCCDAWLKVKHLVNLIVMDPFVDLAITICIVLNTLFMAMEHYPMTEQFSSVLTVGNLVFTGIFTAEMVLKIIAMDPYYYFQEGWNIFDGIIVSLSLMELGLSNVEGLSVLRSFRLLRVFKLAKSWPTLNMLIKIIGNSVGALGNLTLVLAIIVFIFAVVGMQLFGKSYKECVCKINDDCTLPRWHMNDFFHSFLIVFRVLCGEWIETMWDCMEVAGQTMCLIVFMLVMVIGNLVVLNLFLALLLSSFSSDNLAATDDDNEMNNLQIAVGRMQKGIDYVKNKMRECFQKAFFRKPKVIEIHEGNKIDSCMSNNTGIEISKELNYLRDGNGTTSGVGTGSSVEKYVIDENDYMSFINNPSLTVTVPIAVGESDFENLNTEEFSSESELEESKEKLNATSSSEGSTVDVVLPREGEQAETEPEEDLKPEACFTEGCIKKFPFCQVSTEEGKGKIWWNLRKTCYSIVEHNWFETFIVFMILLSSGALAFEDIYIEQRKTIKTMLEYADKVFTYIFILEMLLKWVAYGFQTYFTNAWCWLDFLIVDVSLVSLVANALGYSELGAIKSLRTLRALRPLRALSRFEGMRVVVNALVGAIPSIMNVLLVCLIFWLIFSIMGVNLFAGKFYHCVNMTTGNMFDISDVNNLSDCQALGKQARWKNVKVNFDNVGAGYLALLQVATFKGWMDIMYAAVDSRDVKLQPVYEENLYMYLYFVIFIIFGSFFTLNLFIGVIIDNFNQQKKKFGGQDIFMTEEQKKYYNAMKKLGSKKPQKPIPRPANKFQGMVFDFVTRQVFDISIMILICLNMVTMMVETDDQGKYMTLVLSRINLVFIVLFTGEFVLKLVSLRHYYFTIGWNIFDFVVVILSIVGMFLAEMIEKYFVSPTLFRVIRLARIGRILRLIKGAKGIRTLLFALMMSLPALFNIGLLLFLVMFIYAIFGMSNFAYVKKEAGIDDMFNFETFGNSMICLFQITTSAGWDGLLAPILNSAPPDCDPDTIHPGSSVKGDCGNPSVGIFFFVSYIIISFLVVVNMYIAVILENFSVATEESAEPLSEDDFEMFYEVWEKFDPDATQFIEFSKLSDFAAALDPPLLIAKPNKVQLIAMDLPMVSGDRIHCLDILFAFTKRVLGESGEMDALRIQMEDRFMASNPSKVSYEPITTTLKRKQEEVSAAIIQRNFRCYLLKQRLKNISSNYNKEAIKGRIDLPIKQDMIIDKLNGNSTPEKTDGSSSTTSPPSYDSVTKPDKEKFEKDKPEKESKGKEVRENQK

Molecule	pIC50
Cc1nc(NS(=O)(=O)c2ccc(C(=O)NCc3ccc(C(F)(F)F)cc3)cc2)cs1 [Example 15, 4-{[(2-Methyl-1,3-thiazol-4-yl)amino]sulfonyl}-N-[4-(trifluoromethyl)benzyl]benzamide]	4.51
O=C(NCc1ccc(C(F)(F)F)c(F)c1)c1ccc(S(=O)(=O)Nc2nccs2)cc1F [Example 333, 2-Fluoro-N-[3-fluoro-4-(trifluoromethyl)benzyl]-4-[(1,3-thiazol-2-ylamino)sulfonyl] benzamide]	6.68
O=C(NCc1ccc(Cl)c(Cl)c1)c1ccc(S(=O)(=O)Nc2nccs2)c(Cl)c1 [Example 291, 3-Chloro-N-(3,4-dichlorobenzyl)-4-[(1,3-thiazol-2-ylamino)sulfonyl]benzamide]	6.15
COc1cccc(C2CCCN(C(=O)c3ccc(S(=O)(=O)Nc4nccs4)cc3)C2)c1 (stereo not drawn) [Example 217, 4-{[3-(3-Methoxyphenyl)piperidin-1-yl]carbonyl}-N-1,3-thiazol-2-yl-benzenesulfonamide]	5.54
COc1ccccc1CC1CCCN(C(=O)c2ccc(S(=O)(=O)Nc3nccs3)cc2)C1 (stereo not drawn) [Example 196, 4-{[3-(2-Methoxybenzyl)piperidin-1-yl]carbonyl}-N-1,3-thiazol-2-yl-benzenesulfonamide]	< 6.00
O=C(NCc1ccc(Cl)c(Cl)c1)c1ccc(S(=O)(=O)Nc2ncc(Cl)s2)c(F)c1 [Example 311, 4-{[(5-Chloro-1,3-thiazol-2-yl)amino]sulfonyl}-N-(3,4-dichlorobenzyl)-3-fluorobenzamide]	7.22
Cc1ncc(NS(=O)(=O)c2ccc(C(=O)NCc3ccc(C(F)(F)F)cc3)cc2)s1 [Example 16, 4-{[(2-Methyl-1,3-thiazol-5-yl)amino]sulfonyl}-N-[4-(trifluoromethyl)benzyl]benzamide]	< 5.00
O=C(NCc1cc(F)cc(F)c1)c1ccc(S(=O)(=O)Nc2nccs2)cc1 [Example 83, N-(3,5-difluorobenzyl)-4-[(1,3-thiazol-2-ylamino)sulfonyl]benzamide]	6.21
O=C(c1ccc(S(=O)(=O)Nc2nccs2)cc1)N1CCCCC1c1ccccc1 (stereo not drawn) [Example 239, 4-[(2-Phenylpiperidin-1-yl)carbonyl]-N-1,3-thiazol-2-yl-benzenesulfonamide]	5.53
O=C(c1ccc(S(=O)(=O)Nc2nccs2)cc1)N1CCOC(COc2ccc(F)cc2Cl)C1 (stereo not drawn) [Example 266, 4-({2-[(2-Chloro-4-fluorophenoxy)methyl]morpholin-4-yl}carbonyl)-N-1,3-thiazol-2-ylbenzenesulfonamide]	5.78
O=C(NCc1ccc(C(F)(F)F)cc1)c1ccc(S(=O)(=O)Nc2ncc(Cl)s2)cc1F [Example 352, 4-{[(5-Chloro-1,3-thiazol-2-yl)amino]sulfonyl}-2-fluoro-N-[4-(trifluoromethyl)benzyl]benzamide]	6.70
O=C(NCc1ccc(C(F)(F)F)cc1)c1ccc(S(=O)(=O)Nc2nccs2)cn1 [Example 342, 5-[(1,3-Thiazol-2-ylamino)sulfonyl]-N-[4-(trifluoromethyl)benzyl] pyridine-2-carboxamide]	6.29
O=C(NCCOc1ccccc1Cl)c1ccc(S(=O)(=O)Nc2nccs2)cc1 [Example 148, N-[2-(2-chlorophenoxy)ethyl]-4-[(1,3-thiazol-2-ylamino)sulfonyl]benzamide]	5.60
O=C(NCc1ccc(F)c(C(F)(F)F)c1)c1ccc(S(=O)(=O)Nc2nccs2)c(Cl)c1 [Example 290, 3-Chloro-N-[4-fluoro-3-(trifluoromethyl)benzyl]-4-[(1,3-thiazol-2-yl-amino)sulfonyl]benzamide]	5.86
O=C(NCc1ccc(OC(F)(F)F)c(F)c1)c1ccc(S(=O)(=O)Nc2ncc(Cl)s2)cc1 [Example 38]	7.22
O=C(NCc1ccc(C(F)(F)F)c(Cl)c1)c1ccc(S(=O)(=O)Nc2ncc(Cl)s2)cc1 [Example 30, 4-{[(5-Chloro-1,3-thiazol-2-yl)amino]sulfonyl}-N-[3-chloro-4-(trifluoromethyl)benzyl]benzamide]	7.52
O=C(NCc1ccc(F)cc1F)c1ccc(S(=O)(=O)Nc2nccs2)cc1 [Example 94, N-(2,4-difluorobenzyl)-4-[(1,3-thiazol-2-ylamino)sulfonyl]benzamide]	< 7.00
O=C(NCc1ccccc1C(F)(F)F)c1ccc(S(=O)(=O)Nc2nccs2)cc1 [Example 88, 4-[(1,3-Thiazol-2-ylamino)sulfonyl]-N-[2-(trifluoromethyl)benzyl]benzamide]	< 7.00
Cc1cc(NC(=O)c2ccc(S(=O)(=O)Nc3nccs3)cc2)cnc1C [Example 175, N-(5,6-dimethylpyridin-3-yl)-4-[(1,3-thiazol-2-ylamino)sulfonyl]benzamide]	5.39

Molecule	pIC50
O=C(NCc1ccc(F)c(F)c1)c1ccc(S(=O)(=O)Nc2ncc(Cl)s2)c(F)c1 [Example 312, 4-{[(5-Chloro-1,3-thiazol-2-yl)amino]sulfonyl}-N-(3,4-difluorobenzyl)-3-fluorobenzamide]	6.85
Cc1ccc(CNC(=O)c2ccc(S(=O)(=O)Nc3nccs3)cc2)cc1Cl [Example 400, N-(3-chloro-4-methylbenzyl)-4-[(1,3-thiazol-2-ylamino)sulfonyl] benzamide]	7.15
O=C(NCc1ccc(F)c(C(F)(F)F)c1)c1ccc(S(=O)(=O)Nc2nccs2)cc1F [Example 336, 2-Fluoro-N-[4-fluoro-3-(trifluoromethyl)benzyl]-4-[(1,3-thiazol-2-ylamino)sulfonyl] benzamide]	6.62
O=C(c1ccc(S(=O)(=O)Nc2nccs2)cc1)N1CCSCC1c1ccccc1Cl (stereo not drawn) [Example 46, 4-{[3-(2-Chlorophenyl)thiomorpholin-4-yl]carbonyl}-N-1,3-thiazol-2-ylbenzenesulfonamide]	5.81
O=C(Nc1cnn(Cc2ccc(Cl)cc2)c1)c1ccc(S(=O)(=O)Nc2ncc(Cl)s2)c(F)c1 [Example 381, N-[1-(4-chlorobenzyl)-1H-pyrazol-4-yl]-4-{[(5-chloro-1,3-thiazol-2-yl)amino]sulfonyl}-3-fluorobenzamide]	6.92
CC(NC(=O)c1ccc(S(=O)(=O)Nc2ncns2)cc1)c1ccc(C(F)(F)F)cc1 (stereo not drawn) [Example 322, 4-[(1,2,4-Thiadiazol-5-ylamino)sulfonyl]-N-{1-[4-(trifluoromethyl)phenyl]ethyl}benzamide]	6.47
O=C(NCc1ccc(OC(F)(F)F)cc1)c1ccc(S(=O)(=O)Nc2ncc(Cl)s2)c(Cl)c1 [Example 362, 3-Chloro-4-{[(5-chloro-1,3-thiazol-2-yl)amino]sulfonyl}-N-[4-(trifluoromethoxy)benzyl]benzamide]	5.96
O=C(NCc1ccc(C(F)(F)F)cc1)c1ccc(S(=O)(=O)Nc2nccs2)nc1 [Example 417, 6-[(1,3-Thiazol-2-ylamino)sulfonyl]-N-[4-(trifluoromethyl)benzyl]nicotinamide]	6.68
CC(O)(CN(C(=O)c1ccc(S(=O)(=O)Nc2nccs2)cc1)C1CCCCC1)c1ccccc1 (stereo not drawn) [Example 257, N-cyclohexyl-N-(2-hydroxy-2-phenylpropyl)-4-[(1,3-thiazol-2-yl-amino)sulfonyl]benzamide]	< 6.00
O=C(NCc1ccc(C(F)(F)F)c(F)c1)c1ccc(S(=O)(=O)Nc2nccs2)cn1 [Example 340, N-[3-fluoro-4-(trifluoromethyl)benzyl]-5-[(1,3-thiazol-2-ylamino)sulfonyl]pyridine-2-carboxamide]	6.55
4-[(1,3-Thiazol-2-ylamino)sulfonyl]-N-(4-isopropyloxybenzyl)benzamide [Example 69]	6.11
N#Cc1ccc(OC2CCCN(C(=O)c3ccc(S(=O)(=O)Nc4nccs4)cc3)C2)cc1F (stereo not drawn) [Example 193, 4-{[3-(4-Cyano-3-fluorophenoxy)piperidin-1-yl]carbonyl}-N-1,3-thiazol-2-yl-benzenesulfonamide]	5.49
O=C(c1ccc(S(=O)(=O)Nc2nccs2)cc1)N1CCC(O)(c2ccc(Cl)cc2)CC1 [Example 236, 4-{[4-(4-Chlorophenyl)-4-hydroxypiperidin-1-yl]carbonyl}-N-1,3-thiazol-2-ylbenzenesulfonamide]	5.51
O=C(NCc1ccc(Cl)c(Cl)c1)c1ccc(S(=O)(=O)Nc2nccs2)c(F)c1 [Example 297, N-(3,4-dichlorobenzyl)-3-fluoro-4-[(1,3-thiazol-2-ylamino)sulfonyl]benzamide]	7.22
O=C(NCc1ccc(Cl)cc1Cl)c1ccc(S(=O)(=O)Nc2nccs2)cc1 [Example 413, N-(24-dichlorobenzyl)-4-[(1,3-thiazol-2-ylamino)sulfonyl] benzamide]	6.74
O=C(NCc1ccc(C(F)(F)F)cc1)c1ccc(S(=O)(=O)Nc2ccon2)cc1 [Example 7, 4-[(Isoxazol-3-ylamino)sulfonyl]-N-[4-(trifluoromethyl)benzyl]benzamide]	5.23
O=C(NCc1ccc(F)c(OC(F)(F)F)c1)c1ccc(S(=O)(=O)Nc2ncc(Cl)s2)c(Cl)c1 [Example 367, 3-Chloro-4-{[(5-chloro-1,3-thiazol-2-yl)amino]sulfonyl}-N-[4-fluoro-3-(trifluoromethoxy)benzyl]benzamide]	5.82
Cc1noc(NS(=O)(=O)c2ccc(C(=O)NCc3ccc(C(F)(F)F)cc3)cc2)c1C [Example 12, 4-{[(3,4-Dimethylisoxazol-5-yl)amino]sulfonyl}-N-[4-(trifluoromethyl)benzyl]benzamide]	4.53

Same assay, conditions: read-out: SCN3A EIC-50

Molecule	pIC50
O=C(NCc1ccc(C(F)(F)F)c(Cl)c1)c1ccc(S(=O)(=O)Nc2nccs2)cn1 [Example 341, N-[3-chloro-4-(trifluoromethyl)benzyl]-5-[(1,3-thiazol-2-ylamino)sulfonyl] pyridine-2-carboxamide]	6.72
O=C(NCc1ccc(C(F)(F)F)c(F)c1)c1ccc(S(=O)(=O)Nc2ncc(Cl)s2)cn1 [Example 345, 5-{[(5-Chloro-1,3-thiazol-2-yl)amino]sulfonyl}-N-[3-fluoro-4-(trifluoromethyl)benzyl] pyridine-2-carboxamide]	6.57
